From US10251871B2, “Compositions and methods for treatment of edema” (Memorial Sloan Kettering Cancer Center, priority 2015, dated 2019)

Assays:
[1] = test system: mouse tail model of lymphedema; assay: Mouse tail model of lymphedema (tail volume, histology, immunostaining, lymphoscintigraphy, NIR imaging, PCR, ELISA); type: in vivo, C57BL/6J mice
[2] = test system: blood vessel permeability; assay: Miles assay for vascular permeability after PLND; type: in vivo; settings: topical tacrolimus 2 weeks, PLND mice, vs vehicle control
Experimental: Additionally, to ensure that the observed effects of tacrolimus on lymphatic function were not a result of decreased vascular permeability and blood vessel leakage, we performed a Miles assay to measure blood vessel permeability following PLND surgeries with and without tacrolimus. […] In-vivo detection of ROS was performed by bioluminescent imaging of NADPH oxidase as described by Han et al. (J. Vis. Exp. doi: 10.3791/3925 (2012)). Briefly, mice were systemically injected with L-012 (an analogue of luminol) (20 μg/g) dissolved in PBS at different time points after PLND and luminescent signals representing ROS at the PLND surgery site were imaged and quantified using IVIS spectrum 200 (Xenogen Corporation). Miles assay for vascular permeability was performed as described. Radu et al., J. Vis. Exp. doi: 10.3791/50062 (2013). Briefly, 200 μl of 0.5% sterile Evans blue was injected via tail vein to 2 weeks tacrolimus treated PLND mice. After 30 min PLND hind limbs were imaged to observe Evans blue leakage. Hind limbs were excised and incubated in formamide for 48 hrs. at 55° C. to extract the Evans blue. Extracted Evans blue was quantified by measuring absorbance at 610 nm.

[3] = test system: popliteal lymph node dissection (PLND) mouse model; assay: Popliteal lymph node dissection (PLND) hind limb model of lymphatic injury; settings: 4 weeks after PLND
Text: To enable analysis of the lymphatic collecting vessel pumping capacity we utilized a previously described mouse popliteal lymphadenectomy model. […] Briefly, the hind limb collecting vessels and popliteal lymph nodes were identified and the lymph nodes were excised with the popliteal fat pad. Beginning 2 weeks after surgery, animals were randomized to treatment with either 0.1% topical tacrolimus or vehicle control (petroleum jelly) twice daily for 2 weeks.
Near infrared imaging (NIR) was performed using a modification of previously published results. […] Briefly, 15 μl (0.15 mg mL^−1) indocyanine green (ICG, Sigma-Aldrich, Saint Louis, Mo.) was injected intradermally in the web space of the dorsal hind limb and visualized using an EVOS EMCCD camera (Life Technologies, Carlsbad, Calif.) with a LED light source (CoolLED, Andover, United Kingdom). Static/video images were obtained using a Zeiss V12 Stereolumar microscope (Caliper Life Sciences, Hopkinton, Mass.) and lymphatic pumping function was analyzed using Fiji software (NIH, Bethesda, Md.) by identifying a region-of-interest over the dominant collecting vessel of the leg and subtracting the background fluorescent intensity plotted over time.
Immunohistochemical staining was performed using our published methods. […] Briefly, tissues were fixed in 4% paraformaldehyde at 4° C., decalcified in 5% sodium EDTA (Santa Cruz Biotechnology, Dallas, Tex.), embedded in paraffin, and sectioned at 5 micrometers. Cut sections were rehydrated and heat-mediated antigen unmasking was performed using 90° C. sodium citrate (Sigma-Aldrich). Non-specific binding was blocked with 2% BSA/20% animal serum. Tissues were incubated overnight with primary antibody at 4° C. Primary antibodies used for immunohistochemical stains included goat anti-mouse LYVE-1, rat anti-mouse CD45, rabbit anti-mouse CD4, and rat anti-mouse F4/80 (all from R&D, Minneapolis, Minn.), rabbit anti-mouse CD3 (from Dako, Carpinteria, Calif.), Cy3-conjugated mouse anti-αSMA (from Sigma-Aldrich), rabbit anti-human IFN-γ, rabbit anti-mouse TGF-β1, rabbit anti-mouse p-SMAD3, rabbit anti-mouse collagen I, rabbit-anti-mouse iNOS, and hamster-anti-mouse podoplanin, rabbit anti-mouse HMGB-1 and HSP-70 (all from ABCAM, Cambridge, Mass.).
Immunofluorescence staining was performed using AlexaFluor fluorophore-conjugated secondary antibodies (Life Technologies, Norwalk, Conn.). Images were scanned using Mirax imaging software (Carl Zeiss).

[4] = test system: unwounded mouse ears; assay: Unwounded mouse ears, whole mount imaging of lymphatic vessels; type: in vivo, mice; settings: tacrolimus applied to unwounded ears for 4 weeks
Text: We also studied lymphangiogenesis during wound healing using an ear punch wound model and applying topical tacrolimus or control ointment for 4 weeks. […] To test the possibility of direct lymphangiogenic effects of tacrolimus, we applied tacrolimus to unwounded mouse ears for 4 weeks, and then performed whole mount confocal imaging of lymphatic vessels. We observed no increase in lymphangiogenesis in this uninjured, non-inflamed setting (FIG. 16).

[5] = test system: circulating blood T cells; assay: Flow cytometry of peripheral blood T cells; type: in vivo, mice
Experimental: Flow cytometry was performed on peripheral blood samples as previously reported. Zampell et al., PLoS ONE 7:e49940 (2012). Briefly, erythrocytes were lysed with RBC lysis buffer (Ebioscience, San Diego, Calif.) followed by staining with fluorophore-conjugated antibodies (CD45, CD3, and CD4; all from Biolegend, San Diego, Calif.) and analysis with a FACSCalibur flow cytometer (BD Biosciences, Franklin Lakes, N.J.) using FlowJo software (Tree Star, Ashland, Oreg.).

[6] = test system: ear skin lymphatic vessels (LYVE-1+); assay: Ear punch wound model of cutaneous lymphangiogenesis; type: in vivo, mice; settings: topical tacrolimus for 4 weeks, vs control ointment
Text: We also studied lymphangiogenesis during wound healing using an ear punch wound model and applying topical tacrolimus or control ointment for 4 weeks. […] To test the possibility of direct lymphangiogenic effects of tacrolimus, we applied tacrolimus to unwounded mouse ears for 4 weeks, and then performed whole mount confocal imaging of lymphatic vessels. We observed no increase in lymphangiogenesis in this uninjured, non-inflamed setting (FIG. 16). […] A corneal lymphangiogenesis assay was performed as previously reported. Cursiefen et al., Cornea 25:443-447 (2006). Briefly, 10-0 nylon sutures (Ethicon, Cincinnati, Ohio) were placed in the cornea at […]. Beginning immediately after suture placement, animals were treated with systemic tacrolimus or vehicle control daily for two weeks, followed by analysis using confocal microscopy (Leica Microsystems, Weitziar, Germany). […] Cutaneous lymphangiogenesis was assessed using an ear punch wound model as previously reported. […] Tile-scan images were obtained using a confocal microscope (Leica Microsystems, Weitziar, Germany) and skin within 400 μm of the wound edge was analyzed using Metamorph software (Molecular Devices, Sunnyvale, Calif.). Standardized (200 μm×200 μm) fields were analyzed for the number of branch points present per unit area by two blinded reviewers.

[7] = topical 0.1% tacrolimus twice daily, early treatment (from 2 weeks after surgery for 4 weeks), vs vehicle control
[8] = topical 0.1% tacrolimus twice daily, late treatment (from 6 weeks after surgery for 3 weeks), vs vehicle control
[9] = topical 0.1% tacrolimus, early and late treatment, vs control
[10] = topical 0.1% tacrolimus, early treatment, qPCR 6 weeks after injury, vs control
[11] = topical 0.1% tacrolimus, early treatment, vs control
[12] = topical 0.1% tacrolimus, late treatment, vs control
[13] = topical 0.1% tacrolimus twice daily for 2 weeks from 2 weeks after PLND, vs vehicle control
[14] = topical 0.1% tacrolimus, vs control
[15] = topical 0.1% tacrolimus, vs vehicle treated controls
[16] = topical tacrolimus, vs vehicle treated controls

C=CC[C@@H]1/C=C(\C)C[C@H](C)C[C@H](OC)[C@H]2O[C@@](O)(C(=O)C(=O)N3CCCC[C@H]3C(=O)O[C@H](/C(C)=C/[C@@H]3CC[C@@H](O)[C@H](OC)C3)[C@H](C)[C@@H](O)CC1=O)[C@H](C)C[C@@H]2OC [tacrolimus]
decrease in soft tissue thickness [1, 7]: ~50% | decrease in tail volume [1, 7]: 95% | soft tissue thickness [1, 8]: highly effective in decreasing | tail volume [1, 8]: highly effective in decreasing | Scar index (picrosirius red, ratio of collagen I/III) [1, 9]: markedly decreased | cellular expression of phosphorylated SMAD3 (pSMAD-3) [1, 9]: markedly decreased | dermal and subcutaneous type I collagen deposition [1, 9]: markedly decreased | expression of TGF-β1 (immunofluorescence) [1, 9]: markedly decreased | NIR (ICG) imaging: transport across the tail wound ([1]; topical 0.1% tacrolimus, early treatment, 6 weeks after lymphatic ligation): rapid transport of interstitial fluid proximally across the tail wound | IFN-γ mRNA expression in tail tissue [1, 10]: significant decrease | TGF-β1 mRNA expression in tail tissue [1, 10]: significant decrease | VEGF-C mRNA expression in tail tissue [1, 10]: no differences | increase in decay adjusted 99mTc uptake of the sacral lymph nodes [1, 11]: more than 6 fold | increase in newly formed lymphatic vessels (LYVE-1) bridging the zone of lymphatic injury [1, 11]: 189% | reduction of CD45+ cells (leukocytes) infiltrating dermis and subcutaneous fat [1, 11]: 56% | reduction of IFN-γ-producing cells [1, 11]: 54% | reduction of infiltrating CD3+ cells [1, 11]: 53% | reduction of infiltrating CD4+ cells [1, 11]: 78% | reduction of soft tissue infiltration of macrophages (F4/80+ cells) [1, 11]: 86% | increase in newly formed lymphatic vessels (LYVE-1) bridging the zone of lymphatic injury [1, 12]: 106% | reduction of CD45+ cells (leukocytes) infiltrating dermis and subcutaneous fat [1, 12]: 49% | reduction of IFN-γ-producing cells [1, 12]: 57% | reduction of infiltrating CD3+ cells [1, 12]: 49% | reduction of infiltrating CD4+ cells [1, 12]: 71% | reduction of soft tissue infiltration of macrophages (F4/80+ cells) [1, 12]: 73% | increase in 99mTc nodal uptake ([1]; topical 0.1% tacrolimus, late treatment, vs control, did not reach statistical significance): 2 fold | blood vessel permeability (Evans blue) [2]: no differences | increase in collecting lymphatic packet frequency [3, 13]: > 2 fold | lymphatic leakiness and dermal back flow of ICG [3, 13]: markedly decreased | collateral lymphatics draining towards the inguinal lymph node ([3]; topical 0.1% tacrolimus, NIR imaging and IF staining, vs control): significantly more | luminal area of hind limb collectors [3, 14]: no differences | number of alpha smooth muscles surrounding hind limb collecting lymphatics [3, 14]: no differences | reduction in perilymphatic CD4+ cells [3, 15]: 56% | reduction in perilymphatic CD45+ cells [3, 15]: 39% | reduction in perilymphatic F4/80+ cells [3, 15]: 36% | reduction in the number of perilymphatic iNOS-expressing cells [3, 15]: 42% | lymphangiogenesis in uninjured, non-inflamed ear [4]: no increase | blood T cells (CD3+) ([5]; systemic tacrolimus 4 mg kg^−1 IP daily, vs vehicle control): significant reduction | circulating CD4+ cells [5, 16]: no changes | circulating blood T cells (CD3+) [5, 16]: no changes | lymphatic vessel branching in ear skin adjacent to the wound [6]: significantly increased | lymphatic vessel density in ear skin adjacent to the wound [6]: significantly increased
